According to patent US6555062B1, “Reagent container for an automated analyzer” (Bayer Corporation, priority 1991, dated 2003):
Several values for one entry are separate records, joined by “and”; a condition that tells them apart may be missing. Equal entries are not always repeated.

Key:
[1] = tested on: monoclonal anti-digoxin antibody; test: Digoxin chemiluminescent immunoassay, specificity (cross-reactivity, effect on dose); type: binding; conditions: digoxin assay
Description: (§1) A digoxin assay has been developed for the above described automated analyzer. The digoxin assay architecture is a hapten solid phase with a labeled antibody (tracer reagent). In the preferred format of this assay, the tracer reagent is an acridinium ester labeled monoclonal anti-digoxin antibody; and the solid phase is paramagnetic particles to which digoxin-apoferritin has been immobilized. A test sample (150 uL.) and tracer reagent (50 uL.) are dispensed into a cuvette by the analyzer and incubated for 2.5 minutes at 37° C. The solid phase reagent (250 uL.) is then added to the cuvette followed by an additional incubation of 5.0 minutes. After the second incubation, magnetic separation and washes are performed as described above prior to detection of the chemiluminescent signal.
(§2) All data presented was generated based upon a two-point recalibration off an original master curve. The master curve was generated using eight standards with values ranging from zero to 6 ng/mL digoxin.
The test assay has a sensitivity of less than 0.1 ng/mL (minimum detectable dose defined as the 95% confidence limit at 0 ng/mL.) with a range of 0-5 ng/mL. The correlation of the automated test assay with a manual test assay (Magic^R Digoxin, Ciba Corning Diagnostics, Corp.) provided a slope of 1.00, an intercept of 0.08 and a correlation coefficient of 0.97 (N=130).

[2] = tested on: T4 antiserum covalently coupled to the solid phase; test: Free thyroxine (FT4) competitive chemiluminescent immunoassay, specificity (% cross-reactivity); type: binding; conditions: FT4 assay, anti-T4 paramagnetic particles, 7.5 minutes at 37° C.
Description: A free thyroxine (FT4) assay has been developed for the above described automated analyzer. The FT4 assay is a competitive binding assay in which FT4 in a test sample competes with labeled T4 (tracer reagent) for a limited amount of T4 antiserum covalently coupled to the solid phase. In the preferred format of this assay acridinium ester is the label and paramagnetic particles serve as the solid phase. A test sample (25 uL.) acridinium ester labeled T4 (100 uL.) and anti-T4 paramagnetic particles (450 uL.) are dispensed by the analyzer into a cuvette and incubated for 7.5 minutes at 37° C. After incubation, magnetic separation and washes are performed as described prior to detection of the chemiluminescent signal. The amount of FT4 present in the test sample is determined by the level of the signed detected and is converted to a dose by a two-point data reduction algorithm.

[3] = tested on: human chorionic gonadotropin (hCG) assay; test: hCG sandwich immunoassay, interfering substances (NCCLS protocols); conditions: bilirubin 20, lipid 1,000, hemolysate 500 mg/dL
Description: A human chorionic gonadotropin (hCG) assay has been developed for the above described automated analyzer. […] A test sample (50 uL.) and tracer reagent (100 uL.) are dispensed into a cuvette by the analyzer and incubated for 5.0 minutes at 37° C. The capture solid phase reagent (450 uL.) is then added to the cuvette followed by an additional incubation of 2.5 minutes. After the second incubation, magnetic separation and washes are performed as described above prior to detection of the chemiluminescent signal.
All data presented was generated based on a two-point calibration off a full standard master curve, consisting of ten standards. The standards, ranging from zero to 1000 mIU/mL., are calibrated against the WHO 1st 75/537 reference material.

[4] = Digoxin immunoassay, interfering substances (NCCLS protocols); conditions: bilirubin 20, lipid 1,000, hemolysate 500 mg/dL
Description: as §1, with “In the preferred format of this assay, the tracer reagent is an acridinium ester labeled monoclonal anti-digoxin antibody; and the solid phase is paramagnetic particles to which digoxin-apoferritin has been immobilized.” left out
as §2

[5] = tested on: prostate specific antigen (PSA) assay; test: PSA chemiluminescent immunoassay, interfering substances (endogenous compounds, chemotherapeutic agents); conditions: mean over three PSA levels
Description: A prostate specific antigen (PSA) assay has been developed for the above described automated analyzer. The PSA assay utilizes an anti-PSA antibody solid phase and a labeled anti-PSA antibody as a tracer reagent. […] A test sample (100 uL.), tracer reagent (50 uL.) and solid phase reagent (250 uL.) are dispersed into a cuvette by the analyzer and incubated for 7.5 minutes at 37° C. After the incubation, magnetic separation and washes are performed as described above prior to detection of the chemiluminescent signal.
All data presented was generated based on a two-point calibration off a standard curve consisting of eight points.

## C[C@H]1O[C@@H](O[C@H]2[C@@H](O)C[C@H](O[C@H]3[C@@H](O)C[C@H](O[C@H]4CC[C@@]5(C)[C@H](CC[C@@H]6[C@@H]5CC[C@]5(C)[C@@H](C7=CC(=O)OC7)CC[C@]65O)C4)O[C@@H]3C)O[C@@H]2C)C[C@H](O)[C@@H]1O [Digitoxin]
[1]
  % Cross-Reactivity: 0.6%

## N[C@H](Cc1cc(I)c(Oc2ccc(O)c(I)c2)c(I)c1)C(=O)O [D-triiodothyronine]
[2]
  % Cross-Reactivity: 3.6%

## N[C@@H](Cc1ccc(O)c(I)c1)C(=O)O [Monoiodotyrosine]
[2]
  % Cross-Reactivity: <0.002%

## CC(=O)O[C@H]1C[C@H](O[C@H]2[C@@H](O)C[C@H](O[C@H]3[C@@H](O)C[C@H](O[C@H]4CC[C@@]5(C)[C@H](CC[C@@H]6[C@@H]5C[C@@H](O)[C@]5(C)[C@@H](C7=CC(=O)OC7)CC[C@]65O)C4)O[C@@H]3C)O[C@@H]2C)O[C@H](C)[C@H]1O[C@@H]1O[C@H](CO)[C@@H](O)[C@H](O)[C@H]1O [Lanatoside C]
[1]
  % Cross-Reactivity: 87.1%

## NC(Cc1ccc(Oc2cc(I)c(O)c(I)c2)c(I)c1)C(=O)O (centres unmarked) [Reverse triiodothyronine]
[2]
  % Cross-Reactivity: 3.1%

## C[C@H]1O[C@@H](O[C@H]2CC[C@@]3(C)[C@H](CC[C@@H]4[C@@H]3C[C@@H](O)[C@]3(C)[C@@H](C5=CC(=O)OC5)CC[C@]43O)C2)C[C@H](O)[C@@H]1O[C@H]1C[C@H](O)[C@H](O[C@H]2C[C@H](O)[C@H](O[C@@H]3O[C@H](CO)[C@@H](O)[C@H](O)[C@H]3O)[C@@H](C)O2)[C@@H](C)O1 [Deslanoside]
[1]
  % Cross-Reactivity: 94.6%

## C[C@@H]1O[C@@H](O[C@H]2C[C@@H](O)[C@]3(CO)[C@H]4[C@H](O)C[C@]5(C)[C@@H](C6=CC(=O)OC6)CC[C@]5(O)[C@@H]4CC[C@]3(O)C2)[C@H](O)[C@H](O)[C@H]1O [Ouabain]
[1]
  % Cross-Reactivity: 7.3%

## N[C@@H](Cc1cc(I)c(Oc2ccc(O)c(I)c2)c(I)c1)C(=O)O [L-triiodothyronine]
[2]
  % Cross-Reactivity: 3.9%

## N[C@@H](Cc1cc(I)c(O)c(I)c1)C(=O)O [Diiodotyrosine]
[2]
  % Cross-Reactivity: <0.002%

## N[C@@H](Cc1cc(I)c(Oc2ccc(O)cc2)c(I)c1)C(=O)O [3,5-diiodo-L-thyronine]
[2]
  % Cross-Reactivity: <0.002%

## N[C@H](Cc1cc(I)c(Oc2cc(I)c(O)c(I)c2)c(I)c1)C(=O)O [D-thyroxine]
[2]
  % Cross-Reactivity: >64%

## Conjugated Bilirubin
[3]
  Spiked vs. Control: 102%
[4]
  Spiked vs. Control: 106% and 99%
[5]; endogenous interferents
  Spiked vs. Control, Mean +/− SD: 101 +/− 9%

## CC(=O)O[C@]1(C(C)=O)CC[C@H]2[C@@H]3C=C(C)C4=CC(=O)CC[C@]4(C)[C@H]3CC[C@@]21C [Megestrol Acetate]
[5]; chemotherapeutic agents
  Spiked vs. Control, Mean +/− SD: 101 +/− 5%

## Hemoglobin: endogenous interferent spiked into patient samples at 500 mg/dL
[5]; endogenous interferents
  Spiked vs. Control, Mean +/− SD: 99 +/− 4%

## CO[C@H]1[C@@H](O)C[C@H](O[C@H]2[C@@H](O)C[C@H](O[C@H]3[C@@H](O)C[C@H](O[C@H]4CC[C@@]5(C)[C@H](CC[C@@H]6[C@@H]5C[C@@H](O)[C@]5(C)[C@@H](C7=CC(=O)OC7)CC[C@]65O)C4)O[C@@H]3C)O[C@@H]2C)O[C@@H]1C [β-Methyldigoxin]
[1]
  % Cross-Reactivity: 109.4%

## COc1cccc2c1C(=O)c1c(O)c3c(c(O)c1C2=O)C[C@@](O)(C(=O)CO)C[C@@H]3O[C@H]1C[C@H](N)[C@H](O)[C@H](C)O1 [Doxorubicin]
[5]; chemotherapeutic agents
  Spiked vs. Control, Mean +/− SD: 100 +/− 3%

## CC/C(=C(/CC)c1ccc(O)cc1)c1ccc(O)cc1 [Diethyl-Stilbesterol]
[5]; chemotherapeutic agents
  Spiked vs. Control, Mean +/− SD: 101 +/− 5%

## O=P1(N(CCCl)CCCl)NCCCO1 (centres unmarked) [Cyclophosphamide]
[5]; chemotherapeutic agents
  Spiked vs. Control, Mean +/− SD: 98 +/− 3%

## C=CC1=C(C)/C(=C/c2[nH]c(Cc3[nH]c(/C=C4\NC(=O)C(C)=C4C=C)c(C)c3CCC(=O)O)c(CCC(=O)O)c2C)NC1=O [Unconjug. Bilirubin]
[3]
  Spiked vs. Control: 106% and 98% and 103%
[4]
  Spiked vs. Control: 105% and 99%
[5]; endogenous interferents
  Spiked vs. Control, Mean +/− SD: 103 +/− 6%
